Laboratory results reported in patent US4748161A, “Triterpenyl esters of organic acids and hypolipidemic agents composed of them” (Amano Pharmaceutical Co., Ltd., priority 1984, dated 1988).
Like-named read-outs stand apart in the source and are kept apart here.

Legend:
[1] = test system: serum lipids and serum lipid hydroperoxide; test: Pharmacological test method B for anti-hyperlipidemic activity (serum lipids, 4 weeks feeding); type: in vivo, male Wistar strain rats; parameters: AI Diff.: unit not given here; conditions: for change in vivo at 1 % in diet: Rattus norvegicus, po, 672 h; for change in vivo at 1 % in diet / AI Diff. / HDL-C Diff. / LPO Diff. / PL Diff. / TG Diff.: versus control group; for TG % of diff. (Table 20) / TG Diff. (Table 20): Table 20, versus control group; for HDL-C rise compared with normal diet group: versus normal diet group
Method: Pharmacological test method B for anti-hyperlipidemic acitivity (the term "method B" was used in the present specification)
Male Wistar strain rats (100±1 g, each 8 rats were formed into a group except that the control group fed with a hyperlipidemic diet was formed of 16 rats) were used as test animals. A powdery diet (CE-2, supplied by Clea Japan, Inc.) was used as ordinary diet. The hyperlipidemic diet was prepared by fortifying the ordinary diet with cholesterol (1%) and cholic acid (0.5%). Each test compound (1%) for administration was admixed with the hyperlipidemic diet. Each two rats were kept in a cage and given the prescribed diet and water ad libitum. Thus the rats were fed for 4 weeks at a constant temperature of 23±1° C. and a constant R.H. of 55±5%. Finally, the rats were fasted from food except water for 16 hours (from 4 p.m. of the 28th test day to 8 a.m. of the 29th test day), and under anesthesia with pentbarbital sodium (tradename: Nembutal), blood was taken from each rat through the descending abdominal arota. Then, TC, HDL-C, TG, PL, and LPO in the serum were measured in the following manner.
A TC kit-K (supplied by Nippon Shoji Kaisha, Ltd.) was used. The principle of this determination is as follows: The ester of cholesterol in the serum is hydrolyzed with cholesterol-ester hydrolase into free cholesterol and fatty acids. All the free cholesterol is oxidized with cholesterol oxydase to form Δ^4 -cholestenone and hydrogen peroxide. Phenol and 4-aminoantipyrin are oxidatively condensed together by the formed hydrogen peroxide and peroxydase. The produced red quinone coloring matter is measured by colorimetry for absorbance at 500 nm using a spectrophotometer, thereby determining the TC:
The color-developing liquid (3.0 ml) is well mixed with the sample serum (0.02 ml). The mixture once heated at 37° C. for 15 minutes, is measured for absorbance at 500 nm with a spectrophotometer. The found absorbance is denoted by EA. On the other hand, the color-developing liquid (3.0 ml) is well mixed with the standard solution. The mixture is treated and measured for absorbance at 500 nm in the same manner as the above. This found absorbance is denoted by ES. Both EA and ES are determined with reference to the value of the blank test conducted using the color-developing liquid (3.0 ml) alone. [formula]
An HDL-C kit-N (supplied by Nippon Shoji Kaisha, Ltd.) was used. […] (VLDL) and lo density lipoprotein (LDL) in the serum is precipitated by the action of heparin. The precipitate is separated by centrifugation. High density lipoprotein (HDL) is dissolved in the separated supernatant. Esters of cholesterol in this fraction is hydrolyzed with cholesterol-ester hydrolase into free cholesterol and fatty acids. All the free cholesterol is oxidized with cholesterol oxydase to form Δ^4 -cholestenone and hydrogen peroxide. Phenol and 4-aminoantipyrine are oxidatively condensed together by the formed hydrogen peroxide and peroxydase. The produced red quinone coloring matter is measured by colorimetry for absorbance at 500 nm using a spectrophotometer, thereby determining the HDL-C.
A PL kit-K (supplied by Nippon Shoji Kaisha, Ltd.) was used for the determination. Lecithin, sphingomyelin, and lysolecithin are decomposed by phospholipase D into choline and phosphatidic acid, N-acylsphingosyl phosphate, or lysophosphatidic acid, respectively. The resulting choline is quantitatively decomposed by choline oxydase into hydrogen peroxide and betaine. With this hydrogen peroxide, and aid of peroxydase, phenol and 4-aminoantipyrin are condensed into red quinone pigment, then the absorbance at 500 nm of which is measured with a spectrophotometer, thereby determining the PL. […]

[2] = test system: serum lipids and serum lipid hydroperoxide; test: Pharmacological test method A for anti-hyperlipidemic activity (serum lipids, 2 weeks feeding); type: in vivo, male Wistar strain rats; conditions: for AI [(TC - HDL-C)/(HDL-C)] / HDL-C in serum / LPO in serum / PL in serum / TC in serum / TG in serum: 1% in hyperlipidemic diet, 2 weeks
Summary of the method: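 Male Wistar rats (100±lg, 10 per group) fed 10 g/day for 2 weeks of a 1% cholesterol/0.5% cholic acid diet, test groups with 1% each of cycloartenol, 24-methylenecycloartanol and cyclobranol. After 16 h fast, aortic blood serum assayed enzymatically/colorimetrically for TC, HDL-C, TG, PL, LPO.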

| Molecule | change in vivo at 1 % in diet ([1]; read-out: AI % of diff.) [%] | change in vivo at 1 % in diet ([1]; read-out: HDL-C % of diff.) [%] | change in vivo at 1 % in diet ([1]; read-out: LPO % of diff.) [%] | AI [(TC - HDL-C)/(HDL-C)] [2] | HDL-C in serum [2] [mg/dL] | LPO in serum [2] [nmol/mL] | PL in serum [2] [mg/dL] | TC in serum [2] [mg/dL] | TG in serum [2] [mg/dL] | AI % of diff. ([2]; versus control group) [%] | HDL-C % of diff. ([2]; versus control group) | HDL-C Diff. ([2]; versus control group) | LPO % of diff. ([2]; versus control group) [%] | LPO Diff. ([2]; versus control group) [nmol/mL] | PL % of diff. ([2]; versus control group) | PL Diff. ([2]; versus control group) | TC % of diff. ([2]; versus control group) [%] | TC Diff. ([2]; versus control group) [mg/dL] | TG % of diff. ([2]; versus control group) | TG Diff. ([2]; versus control group) | further results |
| --- | --- | --- | --- | --- | --- | --- | --- | --- | --- | --- | --- | --- | --- | --- | --- | --- | --- | --- | --- | --- | --- |
| COc1ccc(N)cc1C(=O)OC1CCC23CC24CCC2(C)C(C(C)CCC=C(C)C)CCC2(C)C4CCC3C1(C)C (centres unmarked) [Example 171, cycloartenyl ester of 5-amino-2-methoxybenzoic acid] | -71.6 | 51.3 | -36 | – | – | – | – | – | – | – | – | – | – | – | – | – | – | – | – | – | change in vivo at 1 % in diet ([1]; read-out: PL % of diff.): -33%; change in vivo at 1 % in diet ([1]; read-out: TG % of diff.): -19.3%; TG % of diff. (Table 20) [1]: -53.0%; TG Diff. (Table 20) [1]: -221.6 mg/dL; AI Diff. [1]: -18.02; HDL-C Diff. [1]: +8.2 mg/dl; LPO Diff. [1]: -1.25 nmol/mL; PL Diff. [1]: -58.4 mg/dL; TG Diff. [1]: -15.7 mg/dL |
| C=C(CCC(C)C1CCC2(C)C3CCC4C(C)(C)C(OC(=O)C(C)=Cc5cccc(N)c5)CCC45CC35CCC12C)C(C)C (stereo not drawn) [Example 213, 24-Methylenecycloartanyl ester of m-amino-α-methylcinnamic acid] | -93 | 328 | -38.9 | – | – | – | – | – | – | – | – | – | – | – | – | – | – | – | – | – | change in vivo at 1 % in diet ([1]; read-out: PL % of diff.): -34.8%; change in vivo at 1 % in diet ([1]; read-out: TG % of diff.): -29.2%; TG % of diff. (Table 20) [1]: -54.7%; TG Diff. (Table 20) [1]: -229.0 mg/dL; AI Diff. [1]: -23.38; HDL-C Diff. [1]: +52.4 mg/dl; LPO Diff. [1]: -1.35 nmol/mL; PL Diff. [1]: -61.5 mg/dL; TG Diff. [1]: -23.7 mg/dL; HDL-C rise compared with normal diet group [1]: remarkable rises |
| C=C(CCC(C)C1CCC2(C)C3CCC4C(C)(C)C(OC(=O)C(C)=Cc5ccc(OC(=O)CC)c(OC)c5)CCC45CC35CCC12C)C(C)C (stereo not drawn) [Example 117, 24-methylenecycloartanyl ester of 3-methoxy-4-propionyloxy-α-methylcinnamic acid] | -64.3 | 63.1 | -24.5 | – | – | – | – | – | – | – | – | – | – | – | – | – | – | – | – | – | change in vivo at 1 % in diet ([1]; read-out: PL % of diff.): -28.3%; change in vivo at 1 % in diet ([1]; read-out: TG % of diff.): -21.6%; TG % of diff. (Table 20) [1]: -37.7%; TG Diff. (Table 20) [1]: -157.9 mg/dL; AI Diff. [1]: -16.17; HDL-C Diff. [1]: +10.1 mg/dl; LPO Diff. [1]: -0.85 nmol/mL; PL Diff. [1]: -50.0 mg/dL; TG Diff. [1]: -17.6 mg/dL |
| CCCOc1ccc(N)cc1C=C(C)C(=O)OC1CCC23CC24CCC2(C)C(C(C)CCC=C(C)C)CCC2(C)C4CCC3C1(C)C (stereo not drawn) [Example 195, Cycloartenyl ester of 5-amino-2-propoxy-α-methylcinnamic acid] | -88.3 | 211 | -37.2 | – | – | – | – | – | – | – | – | – | – | – | – | – | – | – | – | – | change in vivo at 1 % in diet ([1]; read-out: PL % of diff.): -34.2%; change in vivo at 1 % in diet ([1]; read-out: TG % of diff.): -28.9%; TG % of diff. (Table 20) [1]: -53.3%; TG Diff. (Table 20) [1]: -223.1 mg/dL; AI Diff. [1]: -22.22; HDL-C Diff. [1]: +33.7 mg/dl; LPO Diff. [1]: -1.29 nmol/mL; PL Diff. [1]: -60.4 mg/dL; TG Diff. [1]: -23.5 mg/dL; HDL-C rise compared with normal diet group [1]: remarkable rises |
| CC(C)=CCCC(C)C1CCC2(C)C3CCC4C(C)(C)C(OC(=O)C=Cc5ccc([N+](=O)[O-])cc5)CCC45CC35CCC12C (centres unmarked) [Example 101, cycloartenyl ester of p-nitro cinnamic acid] | – | – | – | 3.668 | 46.4 | 2.12 | 150.7 | 216.6 | 28.2 | -53.2 | +25.7% | +9.5 mg/dl | -24.3 | -0.68 | -9.0% | -14.9 mg/dL | -33.6 | -109.6 | -17.1% | -5.8 mg/dL | AI Diff. ([2]; versus control group): -4.172 |
| CC(C)=CCCC(C)C1CCC2(C)C3CCC4C(C)(C)C(OC(=O)c5ccc(N)cc5)CCC45CC35CCC12C (centres unmarked) [Example 19, cycloartenyl-p-aminobenzoate] | – | – | – | 0.699 | 91.9 | 1.63 | 153.6 | 156.1 | 31.6 | -42.8 | +6.2% | +5.4 mg/dl | -27.2 | -0.61 | -11.0% | -19.0 mg/dL | -18.8 | -36.1 | -12.9% | -4.7 mg/dL | AI Diff. ([2]; versus control group): -0.523 |
| CC(C)=C(C)CCC(C)C1CCC2(C)C3CCC4C(C)(C)C(OC(=O)c5ccc(O)c(O)c5)CCC45CC35CCC12C (centres unmarked) [Example 39, cyclobranyl-3,4-dihydroxybenzoate] | – | – | – | 0.803 | 98.1 | 1.99 | 155.1 | 176.9 | 39.8 | -52.3 | +21.2% | +17.2 mg/dl | -14.0 | -0.32 | -13.7% | -24.6 mg/dL | -18.5 | -40.2 | -6.9% | -3.0 mg/dL | AI Diff. ([2]; versus control group): -0.881 |
| cycloartenyl-3,4-diacetoxycinnamate [Example 1] | – | – | – | 1.410 | 72.0 | 2.03 | 173.7 | 173.5 | 38.0 | -7.1 | -11.6% | -9.5 mg/dL | -10.6 | -0.24 | +0.06% | +0.1 mg/dl | -15.4 | -31.6 | +10.9% | +3.7 mg/dl | AI Diff. ([2]; Table 2, versus control group): -1.107 mg/dL |
| CC(C)=C(C)CCC(C)C1CCC2(C)C3CCC4C(C)(C)C(OC(=O)c5ccc(O)cc5)CCC45CC35CCC12C (centres unmarked) [Example 58, cyclobranyl-p-hydroxybenzoate] | – | – | – | 1.318 | 62.0 | 1.82 | 121.3 | 143.7 | 26.8 | -25.4 | +3.0% | +1.8 mg/dl | -28.1 | -0.71 | -11.3% | -15.4 mg/dL | -13.7 | -22.9 | -1.5% | -0.4 mg/dL | AI Diff. ([2]; versus control group): -0.449 |
